According to US7643943B2, “Methods for monitoring drug activities in vivo” (Wyeth LLC, priority 2003, dated 2010):

Tests used:
clinical = conditions: human, whole blood
Protocol: In a randomized, double-blind, multicenter trial, once-weekly intravenous doses of 25-, 75-, or 250-mg of CCI-779 were administered to patients with advanced renal cancer that were either previously treated, or untreated and not appropriate candidates for high dose interlukin-2 therapy. Whole blood for CCI-779 and metabolite concentrations was drawn for population pharmacokinetic analysis, and Bayesian-predicted area under the concentration-time curves for parent drug (AUC), parent plus metabolite (AUCsum), and cumulative AUC and AUCsum were derived.
For CCI-779 clearance, factors for dose, attenuation of exposure with multiple-dose, and effect of body surface area were included.
The following examples were based on a randomized, double-blind, multicenter, outpatient phase 2 study of CCI-779 administered by 30 minute intravenous infusion (via an automatic dispensing pump) in patients with advanced RCC. Eligible patients were randomly assigned to treatment in a 1:1:1 ratio to receive 25 mg, 75 mg, or 250 mg of CCI-779 weekly until evidence of disease progression.
Full pharmacokinetic profiling was planned in a subset of patients, with remaining patients to provide sparse sampling.
The bioanalytical method for CCI-779 was performed using whole blood in a liquid chromatography/tandem mass spectrometry (LC/MS/MS) procedure with deuterated internal standard.
In order to characterize the pharmacokinetic profiles of patients providing sparse blood sampling, fully and sparsely sampled patient data were analyzed collectively using a population pharmacokinetic method and the NONMEM application (version 1.0, Revision 5.0 on Windows NT 4.0 computer with Pentium processor, NONMEM Project Group, University of California at San Francisco, Calif.). […] Data were therefore modeled separately and segregated by analyte into two separate data sets with dose, time/duration of administration, and demographic information. […] Construction of the NONMEM infile was performed using SAS (version 8.1) on a Sun Microsystems mainframe computer with Sun OS 5.8. […] In both cases, the model-derived value for AUC for a given patient and analyte were obtained from the quotient of CCI-779 Dose/Clearance (CL), in which CL was obtained from Bayesian estimation and the POSTHOC option of NONMEM.
During model building, an exponential error model was applied to the kinetic model.

[1] = test system: transcripts in patient PBMCs; experiment: Spearman's rank correlation of changes in PBMC gene expression (HgU95A arrays) with cumulative AUCsum; format: in vivo, human; conditions: change in PBMC expression from baseline
Source text: Consent for the pharmacogenomic portion of the clinical study was received and the project was approved by the local Institutional Review Boards at the participating clinical sites. Blood samples for pharmacogenomic characterization were drawn into cell purification tubes (CPT, Becton Dickinson) prior to therapy and following approximately 8 and 16 weeks of treatment. All blood samples were shipped overnight to the Wyeth Department of Molecular Medicine in Andover, Mass., and PBMCs were isolated from the whole blood samples (8 mL) in CPT tubes according to the manufacturer's procedure. For expression profiling analyses, total RNA was isolated from PBMC pellets using the RNeasy mini kit (Qiagen, Valencia, Calif.) and labeled probe for oligonucleotide arrays was prepared using a modification of the procedure described by Lockhart, et al., NAT. BIOTECHNOL., 14:1675-1680 (1996). […] The “average difference” values for each transcript were normalized to “frequency” values using the scaled frequency normalization method (Hill, et al, GENOME BIOL. 2:research0055.1-0055.13 (2001)) in which the average differences for 11 control cRNAs with known abundance spiked into each hybridization solution were used to generate a global calibration curve. This calibration was then used to convert average difference values for all transcripts to frequency estimates, stated in units of parts per million ranging from 1:300,000 (˜3 parts per million (ppm)) to 1:1000 (1000 ppm). PBMC gene expression data were normalized by the scaled frequency normalization method as described above. […] The filter which removes transcripts called absent in all samples is based upon the absent/present decision call made by the […] 3.2 software, which reflects the relative intensity of hybridization of the labeled probes to perfectly matched oligonucleotides versus hybridization to mismatched oligonucleotides for each transcript on the HgU95A chip. The filter that removes transcripts with a frequency of less than 10 ppm in all samples is designed to remove low abundance transcripts which may have variable expression in technical replicates. […] Changes from pretreatment levels were calculated based on log-transformed expression levels. […] Pairwise correlations were calculated to assess the association between individually derived exposure metrics and gene expression levels measured by HgU95A Affymetrix microarrays during the course of therapy. Correlations were run for two pharmacokinetic parameters—cumulative AUC and cumulative AUCsum, and for four measures of expression level—log2-transformed scaled frequency at 8 weeks, log2-transformed scaled frequency at 16 weeks, the difference between log2-transformed scaled frequency at 8 weeks and baseline, and the difference between log2-transformed scaled frequency at 16 weeks and baseline. Spearman's rank correlations, which are not sensitive to potential non-normal distributional properties of the pharmacokinetic parameters, were computed. The p-value for the hypothesis that the correlation was equal to 0 was calculated for each pairwise correlation. […] The results of permutation tests run for cumulative AUCsum vs expression change at 8 weeks and at 16 weeks are shown in Tables 5a and 5b. […] Table 6 also includes FARP1 (Accession No. A1701049). […] Accession numbers for the 19 transcripts are presented in Table 6, along with columns indicating the coefficient of variation observed in healthy individuals (% CV), the p-value observed in the Spearman correlation, the actual magnitude of the correlation, and the corresponding gene names.

[2] = Pharmacokinetics of CCI-779 in patients with cancer following intravenous administration; conditions: human, whole blood
Source text: The pharmacokinetics of CCI-779 is being studied in patients with cancer receiving CCI-779 either alone or in combination with other chemotherapeutic agents following intravenous administration. Intravenous dosage schedules previously investigated include a cyclical schedule (daily for 5 days every two weeks) and a once-weekly regimen. […] The following examples evaluated the safety, efficacy, and pharmacokinetic/pharmacodynamic relationship to clinical response of three doses of CCI-779, when administered to patients with advanced, refractory renal cell cancer (RCC).

[3] = Pharmacodynamic correlation of drug exposure metrics to severity and duration of adverse events; format: in vivo, human
Protocol: For the cumulative dose drug exposure, cumulative AUCsum was determined. Each patients' specific dosing history while on trial medication was determined and used to derive respective AUCs experienced by each patient for the duration of time from start of treatment to time of highest severity adverse event. This test included all the data, irrespective of AE severity, and was analyzed using the asymptotic Mantel-Haenszel Test for Ordinal Association. A severity score of “1” indicating the lowest severity and “3” indicating the highest severity was used. […] Pharmacokinetic parameters were grouped into low, medium and high categories with an equal number of patients in each category. […] Estimation of cumulative exposure was determined for each patient as described above. Duration of an AE was determined by calculating the time interval for which a given patient experienced a given AE. […] The correlations between AE duration and the continuous pharmacokinetic variables were calculated using Spearman rank correlation test (SAS Institute Inc., SAS® […] REFERENCE, Version 8, Cary, N C: SAS Institute Inc., 1999). […] Results of the pharmacodynamic analysis using AUCsum (discrete predictor), cumulative AUCsum (cumulative predictor variable), Ceoi (peak exposure predictor) are shown in Table 12 as derived from 49 differing adverse events recorded for those patients included in the population analysis. […] Cumulative AUCsum refers to aggregate AUCsum based on individual patient dosing history. Ceoi is the CCI-779 concentration observed at end of infusion.

## CO[C@H]1C[C@@H]2CC[C@@H](C)[C@@](O)(O2)C(=O)C(=O)N2CCCC[C@H]2C(=O)O[C@H]([C@H](C)C[C@@H]2CC[C@@H](OC(=O)C(C)(CO)CO)[C@H](OC)C2)CC(=O)[C@H](C)/C=C(\C)[C@@H](O)[C@@H](OC)C(=O)[C@H](C)C[C@H](C)/C=C/C=C/C=C/1C [CCI-779]
clinical; intravenous
  clearance: 24.2 mL/min
clinical; iv
  clearance: 23.2 mL/min
[1]; AB020664, P-value 0.0006
  Correlation with AUCsum at 16 weeks: KIAA0857: 0.69
[1]; AB020664, P-value 0.9627
  Correlation with AUCsum at 8 weeks: KIAA0857: 0.01
[1]; AF038661, P-value 0.0002
  Correlation with AUCsum at 16 weeks: B4GALT3: 0.73
[1]; AF038661, P-value 0.2589
  Correlation with AUCsum at 8 weeks: B4GALT3: 0.21
[1]; AF070548, P-value 0.0006
  Correlation with AUCsum at 16 weeks: SLC25A11: 0.69
[1]; AF070548, P-value 0.0881
  Correlation with AUCsum at 8 weeks: SLC25A11: 0.32
[1]; AF074382, P-value 0.0007
  Correlation with AUCsum at 16 weeks: IKBKG: 0.68
[1]; AF074382, P-value 0.1013
  Correlation with AUCsum at 8 weeks: IKBKG: 0.30
[1]; AI147237, P-value 0.0004
  Correlation with AUCsum at 16 weeks: UNK_AI147237: 0.70
[1]; AI147237, P-value 0.0877
  Correlation with AUCsum at 8 weeks: UNK_AI147237: 0.32
[1]; AI540925, P-value 0.0002
  Correlation with AUCsum at 16 weeks: COX6A1: −0.73
[1]; AI540925, P-value 0.0050
  Correlation with AUCsum at 8 weeks: COX6A1: −0.50
[1]; AI701049, P-value 0.001
  Correlation with AUCsum at 16 weeks: FARP1: 0.66
[1]; AI701049, P-value 0.0089
  Correlation with AUCsum at 8 weeks: FARP1: 0.47
[1]; AI762438, P-value 0.0001
  Correlation with AUCsum at 16 weeks: U2AF65: 0.74
[1]; AI762438, P-value 0.2209
  Correlation with AUCsum at 8 weeks: U2AF65: 0.23
[1]; AL022318, P-value 0.0005
  Correlation with AUCsum at 16 weeks: UNK_AL022318: 0.69
[1]; AL022318, P-value 0.2617
  Correlation with AUCsum at 8 weeks: UNK_AL022318: 0.21
[1]; AL046394, P-value 0.0002
  Correlation with AUCsum at 16 weeks: UNK_AL046394: 0.72
[1]; AL046394, P-value 0.0999
  Correlation with AUCsum at 8 weeks: UNK_AL046394: 0.31
[1]; H98552, P-value 0.0003
  Correlation with AUCsum at 16 weeks: UNK_H98552: 0.71
[1]; H98552, P-value 0.0308
  Correlation with AUCsum at 8 weeks: UNK_H98552: 0.39
[1]; J05257, P-value 0.0005
  Correlation with AUCsum at 16 weeks: DPEP1: 0.69
[1]; J05257, P-value 0.0348
  Correlation with AUCsum at 8 weeks: DPEP1: 0.39
[1]; M14565, P-value 0.0006
  Correlation with AUCsum at 16 weeks: CYP11A: 0.69
[1]; M14565, P-value 0.0838
  Correlation with AUCsum at 8 weeks: CYP11A: 0.32
[1]; M19309, P-value 0.0004
  Correlation with AUCsum at 16 weeks: TNNT1: 0.70
[1]; M19309, P-value 0.2684
  Correlation with AUCsum at 8 weeks: TNNT1: 0.21
[1]; M79463, P-value 0.0007
  Correlation with AUCsum at 16 weeks: PML: 0.68
[1]; M79463, P-value 0.0378
  Correlation with AUCsum at 8 weeks: PML: 0.38
[1]; U17566, P-value 0.0007
  Correlation with AUCsum at 16 weeks: SLC19A1: 0.68
[1]; U17566, P-value 0.1220
  Correlation with AUCsum at 8 weeks: SLC19A1: 0.29
[1]; U44839, P-value 0.0001
  Correlation with AUCsum at 16 weeks: USP11: 0.76
[1]; U44839, P-value 0.3998
  Correlation with AUCsum at 8 weeks: USP11: 0.16
[1]; U48734, P-value 0.0003
  Correlation with AUCsum at 16 weeks: ACTN4: 0.71
[1]; U48734, P-value 0.0721
  Correlation with AUCsum at 8 weeks: ACTN4: 0.33
[1]; U90917, P-value 0.0001
  Correlation with AUCsum at 16 weeks: FOXM1: 0.75
[1]; U90917, P-value 0.206
  Correlation with AUCsum at 8 weeks: FOXM1: 0.24
[1]; U92315, P-value 0.0005
  Correlation with AUCsum at 16 weeks: SULT2B1: 0.69
[1]; U92315, P-value 0.1066
  Correlation with AUCsum at 8 weeks: SULT2B1: 0.30
[2]
  half-life: ~840 min
[2]; 25 mg
  clearance: ~333 mL/min
[2]; 250 mg
  clearance: ~1670 mL/min
[3]; N patients 13, P-value 0.01
  Spearman correlation to Ceoi: duration of Pain abdomen: 0.01 (0.873)
[3]; N patients 13, P-value 0.013, Ceoi = CCI-779 concentration at end of infusion
  Correlation to Ceoi: severity of Myalgia: 0.013 (0.414)
[3]; N patients 17, P-value 0.022
  Correlation to Ceoi: severity of Fever: 0.022 (0.402)
[3]; N patients 17, P-value 0.04
  Spearman correlation to Ceoi: duration of Fever: 0.04 (−0.626)
[3]; N patients 22, P-value 0.015
  Spearman correlation to Ceoi: duration of Anorexia: 0.015 (0.597)
